# Assay results as given in patent US20220281794A1, “METHOD OF THE ISOLATING CHLOROSESAMONE OR CHLOROSESAMONE-CONTAINING FRACTION FROM ROOTS OF GENUS SESAMUM, AND APPLICATION OF THE FRACTION THEREOF” (BRILLIANT BIOMEDICAL CORP., priority 2019, published 2022).
# Assays:
# Assay type in all cases: cell-based
# [1] = system: 4T1 mouse breast cancer cell; assay: cell viability assay (MTT assay), 4T1; conditions: 4T1 cells, 24 hours treatment stated for D2 fraction
# Experimental: (§1) In the first embodiment, MDA-MB-231, a human breast cancer cell and 4T1, a mouse breast cancer cell, Huh-7 and HepG2, a human liver cancer cell and BNL-1-MEA, a mouse liver cancer cell, HL60, a human blood cancer cell and WEHI-3, a mouse blood cancer cell , and
# (§2) A549, a human lung cancer cell and LLC1, a mouse lung cancer cell are used for the experiments. A 96-well plate is used for cell culture. In the test, cells are treated with 0, 25, 50, 100, 200, 400 μg/mL of D2 fraction for 24 hours, and then subjected to cell viability assay (or MTT assay). In cell viability assay, cells are washed with 1X PBS once and treated with 0.5 mg/mL of MTT (3-(4,5-Dimethylthiazol-2-yl)-2,5-diphenyltetrazolium bromide). After incubation at 37 degrees Centigrade for 1-2 hours MTT is removed and cells are washed with 1X PBS once, followed by dimethyl sulfoxide (DMSO) to dissolve […]. Finally optical density (OD) of 570 nm is detected and medium only is used as a 100% cell viability.
# [2] = system: HepG2 human liver cancer cell; assay: cell viability assay (MTT assay), HepG2; conditions: HepG2 cells, 24 hours treatment stated for D2 fraction
# Experimental: as §1, §2
# [3] = system: 4T1 mouse breast cancer cell and HepG2 human liver cancer cell; assay: cell viability assay, summary over 4T1 and HepG2; conditions: range over 4T1 and HepG2 cells
# Experimental: as §1, §2
compound,measurement,setting,value
CC(C)=CCC1=C(Cl)C(=O)c2c(O)ccc(O)c2C1=O [chlorosesamone],50% inhibition concentration in 4T1 mouse breast cancer cell,[1],1.3 µg/mL
same,50% inhibition concentration in HepG2 human liver cancer cell,[2],0.8 µg/mL
same,50% inhibition concentration of chlorosesamone (range),[3],0.8 to 1.3 µg/mL
